In patent publication US20060235062A1, “Novel heterocyclic analogs of diphenylethylene compounds” (THERACOS, INC., priority 2002, published 2006):
Like-named read-outs stand apart in the source and are kept apart here.

Legend:
PPAR-gamma = target: T1, PPAR-gamma (Homo sapiens, UniProt P37231); assay: Preliminary PPAR-gamma competition binding assays; details: data not shown
T1 sequence (P37231 1-505): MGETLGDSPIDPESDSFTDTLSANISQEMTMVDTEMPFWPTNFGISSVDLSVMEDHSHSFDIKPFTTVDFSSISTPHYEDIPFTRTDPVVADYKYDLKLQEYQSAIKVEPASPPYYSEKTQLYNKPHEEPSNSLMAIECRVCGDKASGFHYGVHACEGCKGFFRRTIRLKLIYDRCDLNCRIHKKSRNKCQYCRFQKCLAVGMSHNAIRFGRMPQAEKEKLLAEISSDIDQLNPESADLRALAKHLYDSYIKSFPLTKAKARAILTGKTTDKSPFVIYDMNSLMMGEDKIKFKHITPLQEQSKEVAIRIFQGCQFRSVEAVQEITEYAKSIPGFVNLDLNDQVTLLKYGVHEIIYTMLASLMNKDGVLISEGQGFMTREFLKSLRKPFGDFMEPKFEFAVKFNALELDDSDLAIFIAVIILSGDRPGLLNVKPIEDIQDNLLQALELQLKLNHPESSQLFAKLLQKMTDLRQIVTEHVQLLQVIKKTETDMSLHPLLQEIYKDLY

ZDF rats = assay: Antihyperglycemic activity in Zucker diabetic fatty rats; format: in vivo
NF-kB p65 = NF-kB p65 activation in LPS-stimulated RAW cells (ELISA); format: cell-based; details: 10 μM, 1 μg/ml LPS 15 min, FIG. 15
COX-1 = target: T2, COX-1 (Mus musculus, UniProt P22437); assay: COX-1 activity in RAW cells; format: cell-based; details: 0.1-100 μM
T2 construct: aliquots used to determine COX-2 and COX-1 activity; endogenous in cells; host or cells: RAW (RAW 264.7) cells
T2 sequence (P22437 27-602): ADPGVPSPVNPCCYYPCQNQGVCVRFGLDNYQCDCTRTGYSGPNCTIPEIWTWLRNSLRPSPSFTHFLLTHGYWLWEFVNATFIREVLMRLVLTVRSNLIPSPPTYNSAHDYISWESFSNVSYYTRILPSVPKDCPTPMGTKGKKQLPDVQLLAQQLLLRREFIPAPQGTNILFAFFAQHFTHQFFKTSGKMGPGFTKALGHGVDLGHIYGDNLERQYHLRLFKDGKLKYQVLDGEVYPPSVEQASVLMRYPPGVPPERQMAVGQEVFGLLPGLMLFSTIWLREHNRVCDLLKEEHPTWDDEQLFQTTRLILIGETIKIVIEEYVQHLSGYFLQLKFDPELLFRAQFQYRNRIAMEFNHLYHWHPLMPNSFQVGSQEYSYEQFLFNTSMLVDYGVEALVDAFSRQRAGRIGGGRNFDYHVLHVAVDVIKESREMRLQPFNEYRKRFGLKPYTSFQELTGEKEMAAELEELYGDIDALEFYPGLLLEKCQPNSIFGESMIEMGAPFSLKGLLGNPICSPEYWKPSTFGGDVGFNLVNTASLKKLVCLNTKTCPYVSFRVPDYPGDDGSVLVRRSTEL
Protocol: After 1 hour LPS (0.1 pg/mL) was added and cells were incubated an additional 6 hours. Cell supernatant was then collected, aliquoted and frozen at −70° C., and aliquots used to determine COX-2 and COX-1 activity. Compound 11, but not rosiglitazone, inhibited the activity of COX-2 (as measured by PGE2 production in a 50 μl sample).

Human PPAR-γ2 = target: T3, Human PPAR-γ2 (Homo sapiens, UniProt P37231); assay: PPAR-gamma mediated transactivation of PPRE-luciferase reporter; format: cell-based
T3 construct: inserting the PPARγ2 cDNA coding region into pcDNA3.1+ vector; expressed in transfected cells; host or cells: HEK293 cells (ATCC)
T3 sequence (P37231 1-505): T1 sequence (P37231 1-505)
Protocol: Human PPAR-γ2 expression vector was constructed by inserting PPAR-γ2 encoding region into pcDNA3.1+ vector (Invitrogen, Carlsbad, Calif.). Luciferase reporter vector was constructed by ligating PPRE response element adjacent to the upstream of Firefly luciferase coding region. Control vector, pRL-SV40 expressing Renilla luciferase was purchased from Promega (Madison, Wis.).
About 2.7×10^4 293 cells (ATCC, Manassas, Va.) were plated into a 35 mm culture well and maintained in Eagle's Minimal Essential Medium (ATCC, Manassas, Va.) supplemented with 10% heat inactivated horse serum (ATCC, Manassas, Va.) for 24 hours. Expression, reporter and control vectors (2.5 ng control and 100 ng others per culture well) were transfected by LI[…]™ Reagent (Invitrogen, Carlsbad, Calif.). Transfection reagent and DNA were prepared according to manufacture's recommendations and incubated with cells for 3 hours followed by adding equal volume EMEM supplemented with 20% horse serum. Twenty-four hours after transfection, cells were treated with vehicle or compounds at indicated final concentration for 24 hours. Final concentration of vehicle was 0.001% DMSO (Sigma, ST Louis, Mo.) in medium. Vehicle and compound treatment were all conducted in triplicate. Each culture well was then assayed for a response characterized by increased Firefly luciferase activity normalized with Renilla luciferase activity.
Assays for Firefly luciferase activity and Renilla luciferase activity followed the standard protocol of Dual-luciferase Reporter® Assay System (Promega, Madison, Wis.). Briefly, 400 μl Passive Lysis Buffer was added into each culture well and all wells were placed on a shaker for 15 minutes. Five μl cell lysate of each well was added to a reaction tube. Luciferase reagent II and Stop & Glo® were injected into the reaction tube sequentially by Sirius Luminometer (Berthold Detection Systems, Pforzheim, Germany). Final reporter activity was calculated as the ratio of Firefly luciferase activity over by Renilla luciferase activity.
Human PPARγ2 expression vector was constructed by inserting the PPARγ2 cDNA coding region into pcDNA3.1+ vector (Invitrogen, Carlsbad, Calif.). The PPRE-luciferase reporter gene was the kind gift of Dr. Kenneth Feingold. The control vector, pRL-SV40 containing the Renilla luciferase cDNA was purchased from Promega (Madison, Wis.). About 2.7×10^4 HEK293 human embryonal kidney cells (ATCC) were plated into a 35-mm tissue culture dish and maintained in Eagle Modified Essential Medium (EMEM, ATCC) containing 10% heat-inactivated horse serum for 24 h. Expression, reporter (100 ng/dish) and control (2.5 ng/dish) vectors were transfected using LI[…]™ Reagent (GibcoBRL) according to manufacturer's recommendation. At 24 h after transfection, cells were treated with vehicle (0.001% DMSO in medium) or compounds at the indicated concentration and incubated for 24 h. Each treatment was conducted in triplicate. Each culture dish was assayed for firefly luciferase activity normalized by Renilla luciferase activity to account for differences in transfection efficiency. Luciferase activity was measured using the Dual-luciferase Reporter® Assay System (Promega) and a Sirius luminometer (Berthold Detection System, Pforzheim, Germany).

3T3-L1 fibroblasts = assay: Adipogenesis (triglyceride accumulation) in 3T3-L1 fibroblasts
Protocol: After two days of growth in 6-well plates, cells were treated either with vehicle (0.1% DMSO) or with compounds for ten days. Fresh medium with compounds or vehicle was replenished every 48 h. Cells were washed with PBS twice and fixed in 10% formalin (Sigma) in PBS. After washing in PBS, cells were stained with freshly diluted Oil Red O in isopropanol for 1 h at room temperature. The cells were washed five times with PBS and visualized under an Olympus BH2 microscope. Quantitative accumulation of triglyceride was also measured under similar experimental conditions, except in this case cells were plated in 100-mm tissue culture dishes. Triglyceride was extracted with methanol:chloroform (2:1) mixture. […] Extracted triglyceride was measured by a colorimetric assay (GPO-Trinder, Sigma) according to manufacturer instructions.
After 14 days cells were stained with Oil Red O, counterstained with methylene blue for visual assessment (FIG. 23B) and assayed for triglyceride accumulation.

## COC(=O)C(=Cc1cc(OC)cc(OC)c1)c1ccc(Oc2ccc(CC3SC(=O)NC3=O)cc2)cc1 (stereo not drawn) [Compound 11, 3-(3,5-Dimethoxyphenyl)-2-{4-[4-(2,4-dioxothiazolidin-5-ylmethyl)-phenoxy]-phenyl}-acrylic acid methyl ester]
PPAR-gamma
  affinity (Ki) of PPAR-gamma, less than for rosiglitazone: 6.5 fold
ZDF rats
  glucose levels: normalizes glucose levels
ZDF rats; 50 mg/kg oral once daily, 8 to 9 days
  more weight gained than control animals: 13%
ZDF rats; 50 mg/kg oral once daily, 8 to 9 days, FIG. 21
  decrease in blood glucose levels: 50 % vs baseline
NF-kB p65
  inhibition of the activation of NF-kB (p65): inhibited
COX-1
  inhibition of COX-1 activity: Neither compound inhibited
Human PPAR-γ2
  transactivation potency less than that of rosiglitazone: ≤ 30 fold
Human PPAR-γ2; HEK293 cells, human PPAR-gamma2, ± SE, n=5, FIG. 24, read-out: EC50 for transactivation of PPRE-Luc reporter
  EC50: 284 ± 36 nM
Human PPAR-γ2; cells transfected with human PPAR-gamma2, 24 hours, non-linear regression, read-out: EC50, induction of PPAR-γ mediated luciferase activity
  EC50: 280 nM
Human PPAR-γ2; in vitro transactivation assay
  PPAR-gamma transactivation potency relative to a comparator, in words: approximately one-thirtieth the activity of rosiglitazone
3T3-L1 fibroblasts; 3T3-L1 fibroblasts, 0.1, 1, 10 μM, no dexamethasone, insulin, IBMX, FIG. 23A
  maximal triglyceride accumulated, increase over control: 3.96 fold
3T3-L1 fibroblasts; 3T3-L1 system, data not shown
  cytotoxic concentrations: ≥ 100 µM
